Assay results published in ChEMBL document CHEMBL5380794, “Discovery of a Potent and Selective STAT5 PROTAC Degrader with Strong Antitumor Activity In Vivo in Acute Myeloid Leukemia” (J Med Chem, 2023).
Activity calls are given as the source filed them. The rule behind the calls is not given here.

Experiments:
RS4-11 = assay: Antiproliferative activity against human RS4-11 cells assessed as cell growth inhibition measured for 4 days by celltiter-glo assay; settings: RS4-11, 96 h
Mus musculus [1] = assay: In vivo induction of degradation of STAT5 in human MV4-11 cells xenografted in SCID mouse assessed as reduction in STAT5 levels at 150 mg/kg, ip measured at 1 hrs by immunoblotting analysis; type: functional, organism-based
[2] = Antiproliferative activity against human OCI-M2 cells assessed as cell growth inhibition measured for 4 days by celltiter-glo assay; settings: OCI-M2, 96 h
HL-60 = assay: Antiproliferative activity against human HL-60 cells assessed as maximal cell growth inhibition measured for 4 days by celltiter-glo assay relative to control; type: functional; settings: time 4 day
[3] = In vivo induction of degradation of STAT5 in human MV4-11 cells xenografted in SCID mouse assessed as reduction in STAT5 phosphorylation at Y694 residue at 150 mg/kg, ip measured at 24 hrs by immunoblotting analysis; type: functional; parameters: scale not given: the % may be the effect or the level left
[4] = target: T1, Signal transducer and activator of transcription 5A (Homo sapiens, UniProt P42229); assay: Induction of STAT5 degradation in human SKNO-1 cells assessed as reduction in phosphorylated STAT5 level measured for 18 hrs by immunoblotting analysis; type: cell-based
T1 sequence (P42229 whole entry): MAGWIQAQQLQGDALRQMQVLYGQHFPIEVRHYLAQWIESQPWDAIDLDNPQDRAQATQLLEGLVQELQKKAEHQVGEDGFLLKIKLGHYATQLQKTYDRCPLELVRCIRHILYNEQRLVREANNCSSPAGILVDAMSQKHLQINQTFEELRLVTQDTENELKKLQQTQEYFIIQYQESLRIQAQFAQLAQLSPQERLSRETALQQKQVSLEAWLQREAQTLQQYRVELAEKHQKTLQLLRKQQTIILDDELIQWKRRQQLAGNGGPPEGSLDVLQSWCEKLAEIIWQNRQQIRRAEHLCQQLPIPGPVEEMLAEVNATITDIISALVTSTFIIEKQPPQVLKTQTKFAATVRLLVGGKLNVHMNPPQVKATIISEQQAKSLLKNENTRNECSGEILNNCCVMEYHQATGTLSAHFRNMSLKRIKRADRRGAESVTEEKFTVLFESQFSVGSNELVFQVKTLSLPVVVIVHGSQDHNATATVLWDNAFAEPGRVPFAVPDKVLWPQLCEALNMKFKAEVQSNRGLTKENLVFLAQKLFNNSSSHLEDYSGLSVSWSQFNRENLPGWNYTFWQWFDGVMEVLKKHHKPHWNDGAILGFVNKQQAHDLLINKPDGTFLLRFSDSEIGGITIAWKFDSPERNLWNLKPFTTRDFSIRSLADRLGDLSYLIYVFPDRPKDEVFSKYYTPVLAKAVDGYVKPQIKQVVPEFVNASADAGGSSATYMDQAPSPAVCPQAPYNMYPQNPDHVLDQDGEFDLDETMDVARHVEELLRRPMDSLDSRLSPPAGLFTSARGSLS

[5] = In vivo induction of degradation of STAT5 in human MV4-11 cells xenografted in SCID mouse assessed as reduction in STAT5 levels at 150 mg/kg, ip measured at 1 to 24 hrs by immunoblotting analysis; type: functional; parameters: scale not given: the % may be the effect or the level left; settings: time 1-24 hrs
[6] = target: T1, Signal transducer and activator of transcription 5A; assay: Induction of STAT5 degradation in human Kasumi-3 cells assessed as reduction in phosphorylated STAT5 level measured for 18 hrs by immunoblotting analysis; type: cell-based
STAT5A/STAT5B [7] = target: T2, STAT5A/STAT5B (Homo sapiens, UniProt P42229+P51692); assay: Induction of STAT5A/5B degradation in human RS4-11 cells measured for 18 hrs by immunoblotting analysis; type: cell-based
T2 sequence (P42229 whole entry): T1 sequence (P42229 whole entry)
T2 sequence (P51692 whole entry): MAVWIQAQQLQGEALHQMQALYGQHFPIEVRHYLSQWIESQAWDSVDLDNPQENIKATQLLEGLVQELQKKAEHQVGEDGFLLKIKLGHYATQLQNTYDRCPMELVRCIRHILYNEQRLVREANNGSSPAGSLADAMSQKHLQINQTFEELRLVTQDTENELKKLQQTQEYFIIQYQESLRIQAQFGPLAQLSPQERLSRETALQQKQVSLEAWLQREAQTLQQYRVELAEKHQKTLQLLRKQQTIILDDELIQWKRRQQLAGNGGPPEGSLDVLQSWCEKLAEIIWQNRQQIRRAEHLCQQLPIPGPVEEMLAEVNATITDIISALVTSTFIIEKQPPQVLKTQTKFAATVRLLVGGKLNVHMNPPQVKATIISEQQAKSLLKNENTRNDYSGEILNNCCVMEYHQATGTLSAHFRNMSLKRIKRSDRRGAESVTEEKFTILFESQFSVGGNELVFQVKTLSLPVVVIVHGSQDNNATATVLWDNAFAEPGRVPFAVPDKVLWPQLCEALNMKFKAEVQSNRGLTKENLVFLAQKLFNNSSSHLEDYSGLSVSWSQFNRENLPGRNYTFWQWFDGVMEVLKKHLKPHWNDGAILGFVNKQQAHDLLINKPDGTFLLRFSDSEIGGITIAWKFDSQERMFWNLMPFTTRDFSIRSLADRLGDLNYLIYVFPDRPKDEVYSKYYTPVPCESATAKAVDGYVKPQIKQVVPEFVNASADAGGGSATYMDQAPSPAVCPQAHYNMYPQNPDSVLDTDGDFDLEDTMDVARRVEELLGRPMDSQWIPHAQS

MOLM-13 = assay: Antiproliferative activity against human MOLM-13 cells assessed as maximal cell growth inhibition measured for 4 days by celltiter-glo assay relative to control; type: functional; settings: time 4 day
[8] = Antiproliferative activity against human SKNO-1 cells assessed as cell growth inhibition measured for 4 days by celltiter-glo assay; settings: SKNO-1, 96 h
[9] = target: T1, Signal transducer and activator of transcription 5A; assay: Induction of STAT5 degradation in human MV4-11 cells assessed as reduction in phosphorylated STAT5 level measured for 6 hrs by immunoblotting analysis; type: cell-based
STAT5A/STAT5B [10] = target: T2, STAT5A/STAT5B; assay: Induction of STAT5A/5B degradation in human BDCM cells measured for 18 hrs by immunoblotting analysis; type: cell-based
[11] = Toxicity in SCID mouse assessed as effect on sign of illness at 50 to 200 mg/kg, ip administered 5 days a week for 3 weeks; type: organism-based; settings: in vivo, 120 h, dose 50-200 mg/kg, time 5 day
MV4-11 = assay: Effect on STAT6 level in human MV4-11 cells upto 5 uM measured for 18 hrs by Western blot analysis; type: functional, cell-based
SKNO-1 [12] = assay: Effect on STAT6 level in human SKNO-1 cells upto 5 uM measured for 18 hrs by Western blot analysis; type: functional, cell-based
STAT5A/STAT5B [13] = target: T2, STAT5A/STAT5B; assay: Induction of STAT5A/5B degradation in human Kasumi-3 cells measured for 18 hrs by immunoblotting analysis; type: cell-based
Mus musculus [14] = assay: In vivo induction of degradation of STAT5 in human MV4-11 cells xenografted in SCID mouse assessed as reduction in STAT5 phosphorylation at Y694 residue at 150 mg/kg, ip measured at 1 hrs by immunoblotting analysis; type: functional, organism-based
STAT5A/STAT5B [15] = target: T2, STAT5A/STAT5B; assay: Induction of STAT5A/5B degradation in human OCI-AML2 cells measured for 18 hrs by immunoblotting analysis; type: cell-based
SKNO-1 [16] = assay: Effect on STAT4 level in human SKNO-1 cells upto 5 uM measured for 18 hrs by Western blot analysis; type: functional, cell-based

- IC50 (RS4-11): > 15 µM
- DC50 [4]: 70 nM
- DC50 [6]: 250 nM
- DC50 (STAT5A/STAT5B [7]): 0.07 µM
- DC50 [9]: 60 nM
- DC50 (STAT5A/STAT5B [10]): 0.41 µM
- DC50 (STAT5A/STAT5B [13]): 0.18 µM
- DC50 (STAT5A/STAT5B [15]): 0.28 µM
SMILES: CN(CCCC#Cc1cccc2c1CN(C1CCC(=O)NC1=O)C2=O)C(=O)CCN(C(=O)[C@@H]1CCCN1C(=O)[C@@H](NC(=O)c1cc2cc(C(F)(F)P(=O)(O)O)ccc2s1)C(C)(C)C)c1ccc(-c2nccs2)cc1 (stereo not given in full)
- Activity (Mus musculus [1]): Active
- IC50 [2]: > 15 µM
- Imax (HL-60): <5%
- Activity [3]: >70%
- Activity [5]: >95%
- Imax (MOLM-13): <5%
- IC50 [8]: 360 nM
- Activity [11]: Non-Toxic
- Activity (MV4-11): inactive
- Activity (SKNO-1 [12]): inactive
- Activity (Mus musculus [14]): Active
- Activity (SKNO-1 [16]): inactive
